This is an account of results in ChEMBL document CHEMBL6153157, “Novel 3-Aminothieno[2,3-b]pyridine-2-carboxamides with Activity against Mycobacterium tuberculosis” (ACS Med Chem Lett, 2025).

The term IC50 denotes the point on the concentration scale where inhibition reaches its midpoint. What is called IC90 is the concentration at which the effect reaches the 90% level.

Series [1] can be described thus: Selectivity index, ratio of IC50 for cytotoxicity against human HepG2 cells to IC90 for antibacterial activity against wild type Mycobacterium tuberculosis H37Rv-LP DREAM8 strain expressing codon-optimized DsRed. The class given is toxicity, cell-based.
Series [2] in a line: Cytotoxicity against human HepG2 cells assessed as cell growth inhibition incubated for 3 days by CellTiter-Glo reagent-based luminescence assay. The class given is toxicity. (In general: Cellular ATP, detected with luciferase, serves as a proxy for viable cell number.)
Series [3] concerns Mycobacterium tuberculosis. Description: Antibacterial activity against wild type Mycobacterium tuberculosis H37Rv-LP DREAM8 strain expressing codon-optimized DsRed assessed growth inhibition incubated for 5 days by fluorescence spectrophotometric assay. The settings on record: H37Rv-LP DREAM8, 120 h, time 5 day. The class given is functional.

Structures are written as SMILES.

Turning to `COc1ccc(-c2cc(C(F)(F)F)c3c(N)c(C(=O)N4CCCC4(C)C)sc3n2)cc1`, in series [1], the selectivity ratio was less than 1. In addition, in series [2], the IC50 at 3 days came out at 78 µM. This compound gave an IC90 in series [3] of more than 100 µM.
The corresponding values for `COc1ccc(-c2cc(C(F)(F)F)c3c(N)c(C(=O)N4C5CCCC4COC5)sc3n2)cc1` are less than 1, 42 µM and more than 100 µM.
On to `COC1CN(C(=O)c2sc3nc(-c4ccccc4)ccc3c2N)C1`, for which the IC50 at 3 days in series [2] turned out to be 38 µM. In series [3], this compound displayed a 90% effect concentration (IC90) of more than 100 µM.
In the same order, the values of `COc1ccc(-c2cc(C(F)(F)F)c3c(N)c(C(=O)N4CCCCC4)sc3n2)cc1` are more than 100 µM and more than 100 µM.
Consider `Nc1c(C(=O)N2CCOCC2)sc2nc(-c3ccccc3)ccc12`, for which the half-inhibitory concentration (IC50) at 3 days in series [2] was determined as 56 µM. In series [3], this compound returned an IC90 of more than 100 µM.
The corresponding values for `Cc1ccc(NC(=O)c2sc3nc(C)cc(C(F)(F)F)c3c2N)cc1` are 31 µM and more than 100 µM.
Consider `COc1ccc(-c2cc(C(F)(F)F)c3c(N)c(C(=O)Nc4cc(C)cc(C)c4)sc3n2)cc1`, for which the selectivity ratio in series [1] is less than 1. Also, the IC50 at 3 days in series [2] came to 47 µM. The compound further gave a 90% effect concentration (IC90) in series [3] of more than 100 µM.
In the same order, the values of `COc1ccc(-c2cc(C(F)(F)F)c3c(N)c(C(=O)NC4CC5(C4)CN(C(=O)OC(C)(C)C)C5)sc3n2)cc1` are less than 1, 12 µM and more than 100 µM.
The corresponding values for `COc1ccc(-c2cc(C(F)(F)F)c3c(N)c(C(=O)NCCc4ccccc4)sc3n2)cc1` are less than 1, 23 µM and more than 100 µM.
Consider `COc1ccc(-c2cc(C(F)(F)F)c3c(N)c(C(=O)N4CC(C)OC(C)C4)sc3n2)cc1` (stereo not given), for which the selectivity ratio in series [1] is less than 1. For the same compound, the IC50 at 3 days in series [2] stood at 44 µM. Further, in series [3], the concentration for an effect of 90% (IC90) was more than 50 µM.
For the compound `COCCNC(=O)c1sc2nc(-c3ccc(OC)cc3)cc(C(F)(F)F)c2c1N`, the IC50 at 3 days in series [2] was more than 100 µM. Further, in series [3], the IC90 was more than 100 µM.
As to `COc1ccc(-c2cc(C(F)(F)F)c3c(N)c(C(=O)Nc4c(C)cccc4C)sc3n2)cc1`, the IC50 at 3 days in series [2] is more than 100 µM. In series [3], this compound showed an IC90 of more than 100 µM.
For the compound `COc1ccc(-c2cc(C(F)(F)F)c3c(N)c(C(=O)Nc4cccc(C)c4C)sc3n2)cc1OC`, the IC50 at 3 days in series [2] came out at 42 µM. In series [3], the IC90 is more than 100 µM.
In the same order, the values of `Nc1c(C(=O)N2CCOCC2)sc2nc(-c3ccoc3)ccc12` are 50 µM and more than 100 µM.
As to `COc1ccc(-c2cc(C(F)(F)F)c3c(N)c(C(=O)NC(C)c4ccccc4)sc3n2)cc1` (stereo not given), the selectivity ratio in series [1] worked out at 83. Also, the concentration for half-maximal inhibition (IC50) at 3 days in series [2] worked out at 52 µM. It took 0.63 µM to reach the 90% level in series [3] (IC90).
Take `Nc1c(C(=O)Nc2cccnc2)sc2nc(-c3ccccc3)cc(C(F)(F)F)c12`: in series [2], the concentration for half-maximal inhibition (IC50) at 3 days is more than 100 µM. The compound also showed an IC90 in series [3] of more than 100 µM.
Turning to `COc1ccc(-c2ccc3c(N)c(C(=O)N4CCOCC4)sc3n2)cc1`, the IC50 at 3 days in series [2] was 63 µM. In series [3], this compound came in with a 90% effect concentration (IC90) of more than 100 µM.
In the same order, the values of `Nc1c(C(=O)N2CCCC2)sc2nc(-c3ccc4c(c3)OCO4)cc(C(F)(F)F)c12` are more than 100 µM and more than 100 µM.
As to `COC1CN(C(=O)c2sc3ncccc3c2N)C1`, the IC50 at 3 days in series [2] was more than 100 µM. For the same compound, in series [3], the IC90 is more than 100 µM.
`COc1ccc(-c2cc(C(F)(F)F)c3c(N)c(C(=O)N4CC(OC)C4)sc3n2)cc1`: the selectivity ratio in series [1] is less than 1. The 50% inhibitory concentration (IC50) at 3 days in series [2] is 50 µM. In addition, the IC90 in series [3] was more than 100 µM.
On to `COc1ccc(-c2cc(C(F)(F)F)c3c(N)c(C(=O)N4CCCC4)sc3n2)cc1`, for which the concentration for half-maximal inhibition (IC50) at 3 days in series [2] was more than 50 µM. Moreover, in series [3], the concentration for an effect of 90% (IC90) was more than 50 µM.
Take `COc1ccc(-c2cc(C(F)(F)F)c3c(N)c(C(=O)NC4CCC(c5ccc(C(C)(C)C)cc5)CC4)sc3n2)cc1` (stereo not given): the IC50 at 3 days in series [2] was more than 10 µM. The compound further yielded an IC90 in series [3] of more than 10 µM.
In the case of `CCN(CC)C(=O)c1sc2ncccc2c1N`, the IC50 at 3 days in series [2] is more than 100 µM. This compound also showed an IC90 in series [3] of more than 100 µM.
In the case of `COc1cccc(-c2cc(C(F)(F)F)c3c(N)c(C(=O)Nc4cccc(C)c4C)sc3n2)c1`, the IC50 at 3 days in series [2] was 52 µM. In addition, the IC90 in series [3] is more than 100 µM.
The corresponding values for `COc1ccc(-c2ccc3c(N)c(C(=O)N4CCOCC4)sc3n2)cc1OC` are more than 100 µM and more than 100 µM.
The corresponding values for `CCNC(=O)c1sc2nc(-c3ccc(Cl)cc3Cl)cc(C(F)(F)F)c2c1N` are 36 µM and more than 100 µM.
In the same order, the values of `COc1ccc(-c2cc(C(F)(F)F)c3c(N)c(C(=O)Nc4cccc(C)c4C)sc3n2)cn1` are 31 µM and 1.4 µM.
As for `Nc1c(C(=O)N2CCOCC2)sc2nc(Cl)ccc12`, in series [2], the IC50 at 3 days is more than 100 µM. This compound also showed an IC90 in series [3] of more than 100 µM.
For `COc1ccc(-c2cc(C(F)(F)F)c3c(N)c(C(=O)NC4COC4)sc3n2)cc1`, in series [2], the half-inhibitory concentration (IC50) at 3 days is more than 100 µM. For the same compound, the 90% effect concentration (IC90) in series [3] was more than 100 µM.
In the case of `Nc1c(C(=O)N2CCOCC2)sc2nc(-c3ccc(F)cc3)ccc12`, in series [2], the half-maximal inhibitory concentration (IC50) at 3 days was determined as 41 µM. Also, the concentration for an effect of 90% (IC90) in series [3] is more than 100 µM.
The corresponding values for `Cc1ccc(NC(=O)c2sc3nc(-c4ccccc4)cc(C(F)(F)F)c3c2N)cc1` are 24 µM and more than 100 µM.
The corresponding values for `COc1ccc(-c2cc(C(F)(F)F)c3c(N)c(C(=O)Nc4cccc(C)c4F)sc3n2)cc1` are 42 µM and more than 100 µM.
In the same order, the values of `COc1ccc(-c2cc(C(F)(F)F)c3c(N)c(C(=O)Nc4cccc(C)c4C)sc3n2)cc1` are 44 µM and 1.1 µM.
As to `Nc1c(C(=O)Nc2ccccc2C(F)(F)F)sc2nc(-c3ccccc3)cc(C(F)(F)F)c12`, in series [2], the IC50 at 3 days stood at 97 µM. The compound also had a concentration for an effect of 90% (IC90) in series [3] of more than 100 µM.
The corresponding values for `COc1ccc(-c2cc(C)c3c(N)c(C(=O)Nc4cccc(C)c4C)sc3n2)cc1` are 27 µM and more than 100 µM.
In the same order, the values of `Nc1c(C(=O)Nc2ccccc2F)sc2nc(-c3ccccc3)cc(C(F)(F)F)c12` are more than 100 µM and more than 100 µM.
The corresponding values for `Cc1cccc(NC(=O)c2sc3nc(-c4ccccc4)cc(C(F)(F)F)c3c2N)c1C` are more than 100 µM and more than 100 µM.
As for `COc1ccc(-c2cc(C(F)(F)F)c3c(N)c(C(=O)Nc4ccccc4)sc3n2)cc1`, the concentration for half-maximal inhibition (IC50) at 3 days in series [2] was more than 100 µM. This compound displayed an IC90 in series [3] of more than 100 µM.
With `Nc1c(C(=O)N2CCOCC2)sc2nc(-c3cccnc3)ccc12`, the concentration for half-maximal inhibition (IC50) at 3 days in series [2] is more than 100 µM. In series [3], this compound gave a concentration for an effect of 90% (IC90) of more than 100 µM.
On to `Nc1c(C(=O)NC23CC4CC(CC(C4)C2)C3)sc2nc(-c3ccc4c(c3)OCO4)cc(C(F)(F)F)c12`, for which the IC50 at 3 days in series [2] is 81 µM. This compound registered an IC90 in series [3] of 0.68 µM.
The corresponding values for `Nc1c(C(=O)NCc2ccc(F)cc2)sc2ncccc12` are more than 100 µM and more than 100 µM.
In the same order, the values of `COc1ccc(-c2ccc3c(N)c(C(=O)Nc4cccc(C)c4C)sc3n2)cc1` are more than 100 µM and more than 100 µM.
The corresponding values for `COc1ccc(-c2cc(C(F)(F)F)c3c(N)c(C(=O)Nc4cccc(C)c4OC)sc3n2)cc1` are more than 100 µM and more than 100 µM.
On to `Cc1cccc(CNC(=O)c2sc3nc(-c4ccc5c(c4)OCO5)cc(C(F)(F)F)c3c2N)c1C`, for which the IC50 at 3 days in series [2] was 44 µM. The compound also returned an IC90 in series [3] of more than 100 µM.
The corresponding values for `Nc1c(C(=O)N2CC(F)(F)C2)sc2ncccc12` are more than 100 µM and more than 100 µM.
The corresponding values for `Nc1c(C(=O)NCc2ccccc2)sc2ncccc12` are more than 100 µM and more than 100 µM.
In the same order, the values of `CN(C)C(=O)c1sc2nc(-c3ccccc3)ccc2c1N` are more than 100 µM and more than 100 µM.
With `COc1ccc(-c2cc(C(F)(F)F)c3cc(C(=O)NC(C)c4ccccc4)sc3n2)cc1` (stereo not given), in series [2], the concentration for half-maximal inhibition (IC50) at 3 days was more than 100 µM. In series [3], this compound had an IC90 of 2.5 µM.
For the compound `Nc1c(C(=O)NCc2ccc(F)cc2)sc2nc(-c3ccccc3)ccc12`, the half-maximal inhibitory concentration (IC50) at 3 days in series [2] was more than 100 µM. Further, in series [3], the IC90 is more than 100 µM.
Regarding `Cc1cccc(NC(=O)c2sc3nc(-c4cccs4)cc(C(F)(F)F)c3c2N)c1C`, the IC50 at 3 days in series [2] is more than 100 µM. In series [3], the IC90 was more than 100 µM.
For the compound `COc1ccc(-c2cc(C(F)(F)F)c3c(N)c(C(=O)NCCSC)sc3n2)cc1`, the concentration for half-maximal inhibition (IC50) at 3 days in series [2] is more than 100 µM. In series [3], this compound showed an IC90 of 41 µM.
In the same order, the values of `Nc1c(C(=O)NCc2ccccc2)sc2nc(-c3ccccc3)ccc12` are more than 100 µM and more than 100 µM.
In the same order, the values of `Cc1ccc(-c2cc(C(F)(F)F)c3c(N)c(C(=O)Nc4cccc(C)c4C)sc3n2)cc1` are 60 µM and more than 100 µM.
In the same order, the values of `CN(C)C(=O)c1sc2ncccc2c1N` are more than 100 µM and more than 100 µM.
Regarding `Nc1c(C(=O)N2CC(F)(F)C2)sc2nc(-c3ccccc3)ccc12`, the IC50 at 3 days in series [2] was 38 µM. For the same compound, the 90% effect concentration (IC90) in series [3] is more than 100 µM.
`Cc1cccc(NC(=O)c2sc3nc(-c4ccco4)cc(C(F)(F)F)c3c2N)c1C`: in series [2], the IC50 at 3 days was more than 100 µM. In series [3], this compound gave an IC90 of more than 100 µM.
Regarding `COc1ccc(-c2cc(C(F)(F)F)c3c(N)c(C(=O)Nc4ccc(C)cc4C)sc3n2)cc1`, in series [2], the concentration for half-maximal inhibition (IC50) at 3 days was more than 100 µM. In series [3], the concentration for an effect of 90% (IC90) was more than 100 µM.
As to `Cc1cccc(NC(=O)c2sc3nc(-c4cccs4)cc(C(F)(F)F)c3c2N)c1`, the concentration for half-maximal inhibition (IC50) at 3 days in series [2] is 32 µM. Moreover, the IC90 in series [3] is more than 100 µM.
The corresponding values for `Cc1cccc(NC(=O)c2sc3nc(-c4ccc5c(c4)OCO5)cc(C(F)(F)F)c3c2N)c1C` are 46 µM and 0.94 µM.
In the same order, the values of `Nc1c(C(=O)N2CCOCC2)sc2ncccc12` are more than 100 µM and more than 100 µM.
The corresponding values for `COc1ccc(-c2cc(C(F)(F)F)c3c(N)c(C(=O)NC4CC4)sc3n2)cc1` are more than 100 µM and more than 100 µM.
